The results in this text go back to patent US7199159B2, “Use of biguanide derivatives for making a medicine having a wound healing effect” (Centre National de la Recherche Scientifique (C.N.R.S.), priority 2000, dated 2007).

The experiment has as its system skin wounds reproducing ulceration. The experiment is described as follows: cicatrization of punch skin wounds (pseudo-ulcer) treated daily with metformin ointment. It counts as in vivo, Zucker fa/fa rats. On the procedure:
The efficacy of metformin was tested in vivo on skin wounds reproducing ulceration. The pseudo-ulcer was produced on 14-week-old Zucker fa/fa rats by loss of matter of circular shape 8 mm in diameter made by a “punch”, down to the muscle layer. […] The speed of the cicatrization was evaluated by determining the area of the wounds with a video camera coupled to a computer equipped with image analysis software.
Furthermore, metformin at a concentration of 1% by weight relative to the lipophilic phase also appears to exert an effect on neovascularizaton.
The results of the microscopic analysis of histological sections of the wounds are collated in Table 1 below.

As to `CN(C)C(=N)N=C(N)N` [metformin], the “collagen density in granulation tissue” value (FIG. 3, D4) is “increase in the collagen density”. Also, where the note is “daily treatment, ointment at different metformin concentrations”, the “cicatrization (area of the wounds by image analysis)” value is reported as “significant improvement in cicatrization”. For the same compound, where the note is “different metformin concentrations”, the “epidermization compared with untreated control animals” value is “acceleration of epidermization”. For the same compound, the “closure of the treated wounds vs untreated control wounds” value (four metformin concentrations, FIG. 2) is “closure of the treated wounds is faster than of the untreated control wounds”. Also, the “neovascularization (density of blood capillaries on the edges of the wound)” value (metformin 1%, D5, treated vs control rats) was “greater density of blood capillaries on the edges of the wound”. In addition, the “cicatrizing action, dose-response study” value (ointment with metformin at 0.02%, 0.1%, and 2%) is “cicatrizing action for all the concentrations tested”. The “speed of maturation of granulation tissue” value (rat, in vivo) is “significantly increases the speed of maturation of granulation tissue”.
